{
  "source": "patent US12084472B2",
  "about": "(Ardelyx, Inc., priority 2015, dated 2024)",
  "data": [
    {"target": "T1, human TGR5 (Homo sapiens, UniProt Q8TDU6)", "T1 construct": "expressed in transfected cells; host or cells: HEK293", "T1 sequence (Q8TDU6 1-330)": "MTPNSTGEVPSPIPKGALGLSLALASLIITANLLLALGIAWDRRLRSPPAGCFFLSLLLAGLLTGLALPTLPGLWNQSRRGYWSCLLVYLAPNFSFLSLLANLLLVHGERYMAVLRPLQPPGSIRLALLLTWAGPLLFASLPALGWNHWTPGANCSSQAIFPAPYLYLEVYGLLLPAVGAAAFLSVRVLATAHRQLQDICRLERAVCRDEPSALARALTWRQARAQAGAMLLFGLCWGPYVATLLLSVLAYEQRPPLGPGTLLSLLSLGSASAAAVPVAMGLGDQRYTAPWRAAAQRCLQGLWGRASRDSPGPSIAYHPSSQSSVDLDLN", "assay": "Cell-based TGR5 assay (cAMP generation, HTRF)", "conditions": "HEK293 cells stably transfected with human TGR5; cAMP by HTRF; 30 minutes at 37° C.; read-out: pEC50 Human TGR5 (converted)", "method_in_brief": "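First, compounds in 3-fold serial dilution were placed in HBSS with 10 mM HEPES pH 7.4 and 0.5 mM IBMX. Next, human TGR5-expressing HEK293 cells were added and incubated 30 min at 37° C. Finally, cAMP was detected by HTRF and pEC50 derived by logistic fitting.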", "units": {"EC50": "nM"}, "values": [
      {"smiles": "CC(CCCC(=O)N1CCN(C(=O)NC[C@H](O)[C@@H](O)[C@H](O)[C@H](O)CO)CC1)c1ccc(Cl)c(CNC2(c3cnccc3-c3ccccc3OC3CC3)CC2)c1", "note": "(stereo partly drawn) [Compound I-319, 4-(5-{4-chloro-3-[({1-[4-(2-cyclopropoxyphenyl)pyridin-3-yl]cyclopropyl}amino)methyl]phenyl}hexanoyl)-N-[(2S,3R,4R,5R)-2,3,4,5,6-pentahydroxyhexyl]piperazine-1-carboxamide]", "EC50": "< 100"},
      {"smiles": "Cc1ccc(C(C)CCCC(=O)N(CCCO)C[C@H](O)[C@@H](O)[C@H](O)[C@H](O)CO)cc1CNC1(c2cnccc2-c2ccccc2OC2CC2)CC1", "note": "(stereo partly drawn) [Compound I-358, 5-{3-[({1-[4-(2-cyclopropoxyphenyl)pyridin-3-yl]cyclopropyl}amino)methyl]-4-methylphenyl}-N-(3-hydroxypropyl)-N-[(2S,3R,4R,5R)-2,3,4,5,6-pentahydroxyhexyl]hexanamide]", "EC50": "126 to 1000"},
      {"smiles": "O=C(NC[C@H](O)[C@@H](O)[C@H](O)[C@H](O)CO)N(CCCCc1cc(Cl)c(COC2(c3cnccc3-c3ccccc3OC3CC3)CC2)cc1Cl)CCOCCO", "note": "[Compound I-86, 1-(4-(2,5-dichloro-4-((1-(4-(2-cyclopropoxyphenyl)pyridin-3-yl)cyclopropoxy)methyl)phenyl)butyl)-1-(2-(2-hydroxyethoxy)ethyl)-3-((2S,3R,4R,5R)-2,3,4,5,6-pentahydroxyhexyl)urea]", "EC50": "< 100"},
      {"smiles": "O=S(=O)(c1ccc(Cl)c(COC2(c3cnccc3-c3ccccc3OC3CC3)CC2)c1)N1CCc2nc(O)ccc2C1", "note": "[Compound I-734, 6-[[4-chloro-3-([1-[4-(2-cyclopropoxyphenyl)pyridin-3-yl]cyclopropoxy]methyl)benzene]sulfonyl]-5,6,7,8-tetrahydro-1,6-naphthyridin-2-ol]", "EC50": "< 100"},
      {"smiles": "O=C([C@@H](O)[C@@H](O)[C@H](O)[C@@H](O)CO)N(CCCCCSc1ccc(Cl)c(COC2(c3cnccc3-c3ccccc3OC3CC3)CC2)c1)CCOCCO", "note": "[Compound I-489, (2S,3S,4R,5S)-N-(5-[[4-chloro-3-([1-[4-(2-cyclopropoxyphenyl)pyridin-3-yl]cyclopropoxy]methyl)phenyl]sulfanyl]pentyl)-2,3,4,5,6-pentahydroxy-N-[2-(2-hydroxyethoxy)ethyl]hexanamide]", "EC50": "< 100"},
      {"smiles": "O=C(O)CCN(C[C@H](O)[C@@H](O)[C@H](O)[C@H](O)CO)C(=O)CCCCc1cc(Cl)c(COC2(c3cnccc3-c3ccccc3OC3CC3)CC2)cc1Cl", "note": "[Compound I-183, 3-{5-[2,5-dichloro-4-({1-[4-(2-cyclopropoxyphenyl)pyridin-3-yl]cyclopropoxy}methyl)phenyl]-N-[(2S,3R,4R,5R)-2,3,4,5,6-pentahydroxyhexyl]pentanamido}propanoic acid]", "EC50": "< 100"},
      {"smiles": "COC[C@H](O)CN(C[C@H](O)[C@@H](O)[C@H](O)[C@H](O)CO)C(=O)CCCCc1cc(Cl)c(COC2(c3cnccc3-c3ccccc3OC3CC3)CC2)cc1Cl", "note": "[Compound I-124, 5-[2,5-dichloro-4-({1-[4-(2-cyclopropoxyphenyl)pyridin-3-yl]cyclopropoxy}methyl)phenyl]-N-[(2R)-2-hydroxy-3-methoxypropyl]-N-[(2S,3R,4R,5R)-2,3,4,5,6-pentahydroxyhexyl]pentanamide]", "EC50": "< 100"},
      {"smiles": "Cc1cc(COC2(c3cnccc3-c3ccccc3OC3CC3)CC2)c(Cl)cc1CCCCNC(=O)N[C@@H](CCCNC(=N)N)C(=O)O", "note": "[Compound I-113, (2S)-5-carbamimidamido-2-[({4-[5-chloro-4-({1-[4-(2-cyclopropoxyphenyl)pyridin-3-yl]cyclopropoxy}methyl)-2-methylphenyl]butyl}carbamoyl)amino]pentanoic acid]", "EC50": "< 100"},
      {"smiles": "O=C(NCCCCCS(=O)(=O)c1ccc(Cl)c(COC2(c3cnccc3-c3ccccc3OC3CC3)CC2)c1)NC[C@H](O)[C@@H](O)[C@H](O)[C@H](O)CO", "note": "[Compound I-640, 1-{5-[4-chloro-3-({1-[4-(2-cyclopropoxyphenyl)pyridin-3-yl]cyclopropoxy}methyl)benzenesulfonyl]pentyl}-3-[(2S,3R,4R,5R)-2,3,4,5,6-pentahydroxyhexyl]urea]", "EC50": "< 100"},
      {"smiles": "O=C(NCC1CCN(S(=O)(=O)c2ccc(Cl)c(COC3(c4cnccc4-c4ccccc4OC4CC4)CC3)c2)CC1)NC[C@H](O)[C@@H](O)[C@H](O)[C@H](O)CO", "note": "[Compound I-424, 1-({1-[4-chloro-3-({1-[4-(2-cyclopropoxyphenyl)pyridin-3-yl]cyclopropoxy}methyl)benzenesulfonyl]piperidin-4-yl}methyl)-3-[(2S,3R,4R,5R)-2,3,4,5,6-pentahydroxyhexyl]urea]", "EC50": "< 100"},
      {"smiles": "CC(CCCC(=O)N1CCN(CCNC(=O)NC[C@H](O)[C@@H](O)[C@H](O)[C@H](O)CO)CC1)c1ccc(Cl)c(CNC2(c3cnccc3-c3ccccc3OC3CC3)CC2)c1", "note": "(stereo partly drawn) [Compound I-323, 1-{2-[4-(5-{4-chloro-3-[({1-[4-(2-cyclopropoxyphenyl)pyridin-3-yl]cyclopropyl}amino)methyl]phenyl}hexanoyl)piperazin-1-yl]ethyl}-3-[(2S,3R,4R,5R)-2,3,4,5,6-pentahydroxyhexyl]urea]", "EC50": "< 100"},
      {"smiles": "CC(CCCCN(C)C(=O)NC[C@H](O)[C@@H](O)[C@H](O)[C@H](O)CO)c1ccc(Cl)c(CNC2(c3cnccc3-c3ccccc3OC3CC3)CC2)c1", "note": "(stereo partly drawn) [Compound I-269, 1-(5-{4-chloro-3-[({1-[4-(2-cyclopropoxyphenyl)pyridin-3-yl]cyclopropyl}amino)methyl]phenyl}hexyl)-1-methyl-3-[(2S,3R,4R,5R)-2,3,4,5,6-pentahydroxyhexyl]urea]", "EC50": "< 100"},
      {"smiles": "C[C@@H](CCCCNC(=O)NC[C@H](O)[C@@H](O)[C@H](O)[C@H](O)CO)c1ccc(Cl)c(COC2(c3cnccc3-c3ccccc3OC3CC3)CC2)c1", "note": "(single isomer, unassigned) [Compound I-274]", "EC50": "< 100"},
      {"smiles": "C[C@H](CCCCNC(=O)NC[C@H](O)[C@@H](O)[C@H](O)[C@H](O)CO)c1ccc(Cl)c(CNC2(c3cnccc3-c3ccccc3OC3CC3)CC2)c1", "note": "(single isomer, unassigned) [Compound I-256]", "EC50": "< 100"},
      {"smiles": "O=C([C@@H](O)[C@@H](O)[C@H](O)[C@@H](O)CO)N(CCCCCO)CCCCCSc1ccc(Cl)c(CNC2(c3cnccc3-c3ccccc3OC3CC3)CC2)c1", "note": "[Compound I-601, (2S,3S,4R,5S)-N-[5-({4-chloro-3-[({1-[4-(2-cyclopropoxyphenyl)pyridin-3-yl]cyclopropyl}amino)methyl]phenyl}sulfanyl)pentyl]-2,3,4,5,6-pentahydroxy-N-(5-hydroxypentyl)hexanamide]", "EC50": "< 100"},
      {"smiles": "O=C(NC[C@H](O)[C@@H](O)[C@H](O)[C@H](O)CO)NC1CC2(CCN(S(=O)(=O)c3ccc(Cl)c(COC4(c5cnccc5-c5ccccc5OC5CC5)CC4)c3)CC2)C1", "note": "[Compound I-428, 1-{7-[4-chloro-3-({1-[4-(2-cyclopropoxyphenyl)pyridin-3-yl]cyclopropoxy}methyl)benzenesulfonyl]-7-azaspiro[3.5]nonan-2-yl}-3-[(2S,3R,4R,5R)-2,3,4,5,6-pentahydroxyhexyl]urea]", "EC50": "126 to 1000"},
      {"smiles": "C[C@@H](CCCC(=O)N(C)C[C@H](O)[C@@H](O)[C@H](O)[C@H](O)CO)c1ccc(Cl)c(CNC2(c3cnccc3-c3ccccc3OC3CC3)CC2)c1", "note": "(single isomer, unassigned) [Compound I-325]", "EC50": "< 100"},
      {"smiles": "CS(=O)(=O)c1ccc(Cl)cc1CNC1(c2cnccc2-c2ccccc2OC2CC2)CC1", "note": "[Compound I-43, N-[(5-chloro-2-methanesulfonylphenyl)methyl]-1-[4-(2-cyclopropoxyphenyl)pyridin-3-yl]cyclopropan-1-amine]", "EC50": "126 to 1000"}
    ]}
  ]
}
